Results on two compounds are retold here after patent US9468208B2, “Disease control with tick phospholipase A2” (The United States of America, as represented by the …, priority 2009, dated 2016).

The test system of one test is B. burgdorferi. Put plainly: Borreliacidal assay of saliva alone versus saliva plus phospholipase A2 inhibitor OPC. In kind it is cell-based, Borrelia burgdorferi. The conditions noted are these: 24 hrs, A. americanum saliva plus OPC 5-40 μM; culture controls 79. On the procedure: Gel filtration fractionation of A. americanum saliva produces individual fractions with borreliacidal activity. Saliva is fractionated into 11 molecular weight pools by gel filtration and then tested by a borreliacidal assay as described by Zeidner, et al. 2009. Briefly, A. americanum saliva is size fractionated on a Superdex 200 column run with 25 mM NaCl dissolved in 5 mM HEPES (pH 7.6) at a flow rate of 0.5 ml per minute. The separation is monitored at […]. Fractions are collected at 1 minute intervals into siliconized eppendorf tubes. Each collected fraction is subsequently concentrated to 100 μl using a SpeedVac. 50 μl aliquots of the fractions are pooled according to the major molecular weight peaks at between 2 and 10 fractions per pool. Each pool is subsequently concentrated to 50 μl using Micron-3K filters (Millipore, Billerica, Mass.).
Inhibition of A. americanum borreliacidal activity using oleyloxyethyl phosphorylcholine (OPC) identifies phospholipase A2 as an active component of A. americanum saliva. The borreliacidal assay of Example 6 is performed comparing saliva alone with saliva plus the phospholipase A2 inhibitor OPC. […]

In test [1] the test system is B31 B. burgdorferi isolates. The test can be described thus: B. burgdorferi viability, live/dead BacLight staining counts. The conditions noted are these: 35° C., BSK-H, starting 155 live spirochetes per field. In kind it is cell-based, Borrelia burgdorferi. As to the method: Evaluation of PLA2 protein regulation of B. burgdorferi viability. Analyses of PLA2 protein is performed essentially as described by Ledin, K. E., et al., Med. Vet. Entomol., 2005; 19(1):90-95, the contents of which are incorporated herein by reference. Frozen stocks of low-passage B31 B. burgdorferi isolates (Shelter Island, N.Y.) are reconstituted in BSK-H culture medium and maintained at 35° C. to log phase (Piesman, 1993). Spirochete cultures are diluted with BSK-H to a density of 4.7×10^7 viable spirochetes per mL as counted in a Petroff-Hauser chamber under dark-field microscopy, and distributed in 15 μL aliquots into 0.7 mL tubes for a total of 7.05×10^5 spirochetes per tube. A mean starting concentration of 155 live spirochetes per field is assessed prior to the addition of specific treatments. Each 15 μL aliquot of spirochetes in BSK-His treated with either 15 μL of sterile PBS, 15 μL of 1.33 mg/mL pilocarpine (based on the mid-range of pilocarpine found in previous analysis of tick saliva, (Ribeiro et al., 2004) in sterile PBS, or 15 μL of tick saliva, and incubated at 35° C. 10 μL samples taken from each of 10 prepared cultures and assessed for spirochete survival at 0, 24 and 48 h. Time points for spirochete survival assessment are chosen based on previous observations of post-feeding decreases in spirochete-positive ticks (Ryder et al., 1992). […]

Molecules are shown by their SMILES.

As for `CCCCCCCC/C=C\CCCCCCCCOCCOP(=O)([O-])OCC[N+](C)(C)C` [OPC, oleyloxyethyl phosphorylcholine], the “percent control live spirochetes” value in the test with B. burgdorferi is listed as 76-78%.

As to `CC[C@@H]1C(=O)OC[C@@H]1Cc1cncn1C` [pilocarpine], the results for the “average number of live spirochetes (mean)” value in test [1] (24 h post-exposure) and in test [1] (48 h post-exposure) were 82.1 counts per 10 high powered (10 and 58.2 counts per 10 high powered (10, respectively.
